# Assays:
# Bip, CHOP and ATF-6 = test: Western blot of UPR responsive proteins in BCECs; format: cell-based, bovine
# Method: (§1) Cells were allowed to reach ˜80% confluency in 12-well plates. […] At various time points, plates were taken out of the incubator and kept on ice. Cell monolayers were first washed once with ice-cold PBS before lysis with 250 μl of Pierce RIPA buffer (ThermoFisher Scientific, Rockford, IL) or use 50 mM Tris-HCl (pH 7.6), 150 mM NaCl, 10% Glycerol, 1% NP-40 containing protease/Phosphatase inhibitor cocktail (100×) (Cell signaling, #5872). Lysates were collected and mixed with 4×Bolt LDS Sample Buffer (Novex, Carlsbad, CA) in the presence of Halt protease inhibitors and phosphatase inhibitor cocktail (ThermoFisher scientific, #NP0007). The samples were subjected to SDS-PAGE (Bolt 4-12% Bis-Tris Plus, Invitrogen) using Bolt MES SDS running buffer or NuPAGE 3-8% Tris-Acetate gel using Tris-Acetate SDS running buffer (Novex). HUVECs (passage 6-8) were plated in EBM-2 basal medium (Lonza) with 0.2% FBS. […] Equal amounts of protein lysates were analyzed by SDS-PAGE and blotted with the indicated antibodies. Proteins were transferred using Tris-Glycine buffer with 20% Methanol (Proteonomics grade) (Apex BioResearch Products). Membranes were first incubated with 5% milk in TBST, pH 7.6 (TEKnova, Hollister, CA), followed by blotting with primary and secondary antibodies. ECL anti-rabbit IgG, horseradish peroxidase linked whole antibody from donkey or sheep anti-mouse were obtained from GE Healthcare (UK limited). SuperSignal West Dura Extended Duration substrate was from ThermoFisher Scientific. In some cases, the same PVDF membranes were stripped by 8-min incubation in the Restore Plus Western Blot Stripping Buffer (ThermoFisher Scientific) to show total specific protein expression, followed by second stripping for β-actin expression.
# retinal vasculature = test: Retinal neovascularization after intravitreal injection; format: in vivo, mouse; conditions: intravitreal 500 ng ManN or Kif, 200 ng bFGF; seven days
# Method: Assessment of retinal angiogenesis following intravitreal administration was done. Briefly, 6-8 weeks old C57BL/6 male mice were randomly allocated to different groups and anesthetized with ketamine/Xylazine cocktail. The indicated amounts of ManN, Kif or bFGF (R&D systems, AF-233-NA) in 1 μl of PBS and PBS vehicle control were injected intravitreally with a 33-gauge Hamilton syringe. Seven days after injection, animals were euthanized. Eyes were then enucleated and fixed in 4% paraformaldehyde (PFA) for 30 mins. Retinas were separated and stained with anti-CD31 immunofluorescence (IF) to evidence the vasculature. Evaluations were performed by an investigator blinded to the treatment. For CD31 IF, rat anti-mouse antibody (BD Biosciences, CAT #550274) was diluted 1:100 and incubated overnight at 4° C. After 4-hour incubation with the Alexa Fluor-488-conjugated anti-rat antibody (Life Technologies, A11006), whole mounts were imaged via the 488 nm channel using A1R Confocal STORM super-resolution system (Nikon). Quantification of vascular density in choroids and retina was carried out by Image J. Each experiment was repeated three times with similar results, and each treatment group consists of 5 individual samples.
# [1] = test system: ERK, AKT, mTOR, CREB, ACC and eNOS; test: Western blot of signal transduction pathways in BCECs; format: cell-based, bovine
# Method: as §1
# ischemic hindlimb = test: Hindlimb ischemia model and blood flow; format: in vivo, mouse; conditions: for blood perfusion ratio, of sham-treatment limbs: 3 weeks; for blood vessel density compared with H2O-treated control (CD31): 3 weeks post-ligation; for blood flow recovery (perfusion ratio): one week after surgery, 20% ManN oral or 1 mg/ml Kif ip every other day
# Method: C57BL/6 male mice (6-8 weeks old) were subjected to unilateral hindlimb surgery under anesthesia with ketamine/xylazine cocktail. Briefly, the left femoral artery was separated from the vein and nerve, ligated proximally, and excised. The right hindlimb served as control. Blood flow was measured by using a laser Doppler perfusion imager (PeriScan PSI; Perimed). Ischemic and nonischemic limb perfusion was measured before and after surgery and 1, 2 and 3 weeks later. After surgery, mice were randomly allocated to different groups (8 mice for each group). 200 μl of 20% ManN was orally administrated every other day from 3rd day after surgery. 200 μl of 1 mg/ml Kif was administrated through ip injection every other day. H2O was used as a vehicle control. The final blood flow values were expressed as the ratio of ischemic to nonischemic hindlimb perfusion from the same animal. Quantification of blood vessel area was carried out as described.
# HUVEC = HUVEC scratch assay; format: cell-based, human; conditions: 40 uM ManN in combination with 50 ng/ml VEGF
# Method: BCECs (passage 6-10) and HUVEC (passage 6-8) were used in this assay. Cells were grown until about 80% confluency in 6-well plates, washed twice with PBS and then starved in serum-free DMEM (low Glucose, Hyclone) for 5 hrs before making a “scratch” using 1 ml tip. Cell monolayers were briefly washed once with serum-free media, followed by various treatments in media containing 1% FBS. 48 hrs later, the assay was stopped by adding 2 ml 4% paraformaldehyde. 20 min later, fixed cells were stained with 1 ml Crystal Violet (Sigma). Plates were washed gently under the running tap water and air-dried before taking pictures. Images were acquired by ZEISS Discovery V8 SteREO microscopy equipped with PixeLINK Megapixel FireWire camera. Quantification of wound closure was done using AxioVision LE Rel.4.4 software. Six images were taken for each sample and six measurements (in pixel) were made on each image using AxioVision LE Rel.4.4 software.
# BCEC = BCEC transwell migration assay; format: cell-based, bovine; conditions: ManN at 40 uM
# Method: HUVECs (passage 6-8) were cultured and serum-starved as described in “Western Blots”. Ten thousand cells in 150 μl of EBM-2 medium were then added to the upper chamber of 8 μm pore size cell culture inserts (Falcon) coated with 0.1% gelatin. The lower compartment was filled with 600 μl EBM-2 medium containing various agents. The plates were incubated at 37° C. to allow migration. After 4 hrs, cells were fixed with 4% PFA for 20 min and then stained with crystal violet (Sigma-Aldrich) for 20 min at RT. Migrated cells on the bottom side of the insert membrane were quantified by counting whole area of the insert at 40× magnification. The experiments were carried out in triplicate and repeated three times. BCEC migration was set up similarly, except that wells were coated with FN, cells were suspended in 1% serum media and migration time was 18-24 hrs.
SMILES,"Bip expression with glycosylation inhibitors (Bip, CHOP and ATF-6; media without growth factors for 24 hours)",increase in density of retinal vessels compared to PBS group (retinal vasculature) [%],"activation of ERK and AKT ([1]; 40 uM, BCECs)","blood perfusion ratio, of sham-treatment limbs (ischemic hindlimb) [%]",blood vessel density compared with H2O-treated control (CD31) (ischemic hindlimb) [times],blood flow recovery (perfusion ratio) (ischemic hindlimb),"synergy between ManN and VEGF in promoting Bip or CHOP expression (Bip, CHOP and ATF-6)","time at which accumulation of Bip is evident (Bip, CHOP and ATF-6) [h]","time of CHOP induction (Bip, CHOP and ATF-6; dose-dependent)","Bip expression (Bip, CHOP and ATF-6; growing cells deprived of growth factor supply)",HUVEC wound closure (HUVEC),"activation of ERK, AKT and CREB with both ManN and VEGF compared to ManN or VEGF alone [1]","activation of ERK, AKT, mTOR and CREB ([1]; 40 uM)",activation of eNOS and ACC ([1]; 40 uM),time to activation of eNOS and ACC ([1]; 40 uM) [min],"time to stimulation of ERK, AKT and CREB after adding ManN ([1]; 40 uM) [min]",additivity with VEGF in promoting BCEC migration (BCEC)
"O=C1N[C@@H]2[C@@H](O)[C@@H](O)[C@H](O)[C@@H](CO)N2C1=O [Kif, Kifunensine, reference compound]",dose-dependent induction of Bip expression,~20,significantly activate,~50,1.8,~47%,–,–,–,–,–,–,–,–,–,–,–
"N[C@H](C=O)[C@@H](O)[C@H](O)[C@H](O)CO [ManN, 2-Amino-2-deoxy-D-mannose]",–,~30,–,~50,2.3,about 40%,No synergy,24,about 6 hours,significantly turn on Bip expression in a concentration-dependent manner,stimulation of migration and wound closure,enhancement in activation,activated,significantly activated,10 to 30,10 to 30,significant additivity with VEGF
